Activity calls are given as the source filed them.
Key:
[1] = viability loss of HMLE_sh_eGFP cells – cell-based, luminescence, counter-screen for HMLE_sh_ECad selective toxicity project, dose response (AID 463074); assay type: functional, Homo sapiens;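 note: HMLE human mammary epithelial cells expressing control shRNA against eGFP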
[2] = Luminescence Cell-Based Dose Retest to Confirm Inhibitors of Cancer Stem Cells. [Related pubchem assays (depositor defined):AID2717, AID2721]; assay type: functional; conditions: Homo sapiens
[3] = target: T1, Apoptotic protease-activating factor 1 (Homo sapiens, UniProt O14727); experiment: activation of Apaf-1 mediated apoptosis – fluorescent, uHTS hits, dose response (AID 588554); assay type: functional
T1 sequence (O14727 whole entry): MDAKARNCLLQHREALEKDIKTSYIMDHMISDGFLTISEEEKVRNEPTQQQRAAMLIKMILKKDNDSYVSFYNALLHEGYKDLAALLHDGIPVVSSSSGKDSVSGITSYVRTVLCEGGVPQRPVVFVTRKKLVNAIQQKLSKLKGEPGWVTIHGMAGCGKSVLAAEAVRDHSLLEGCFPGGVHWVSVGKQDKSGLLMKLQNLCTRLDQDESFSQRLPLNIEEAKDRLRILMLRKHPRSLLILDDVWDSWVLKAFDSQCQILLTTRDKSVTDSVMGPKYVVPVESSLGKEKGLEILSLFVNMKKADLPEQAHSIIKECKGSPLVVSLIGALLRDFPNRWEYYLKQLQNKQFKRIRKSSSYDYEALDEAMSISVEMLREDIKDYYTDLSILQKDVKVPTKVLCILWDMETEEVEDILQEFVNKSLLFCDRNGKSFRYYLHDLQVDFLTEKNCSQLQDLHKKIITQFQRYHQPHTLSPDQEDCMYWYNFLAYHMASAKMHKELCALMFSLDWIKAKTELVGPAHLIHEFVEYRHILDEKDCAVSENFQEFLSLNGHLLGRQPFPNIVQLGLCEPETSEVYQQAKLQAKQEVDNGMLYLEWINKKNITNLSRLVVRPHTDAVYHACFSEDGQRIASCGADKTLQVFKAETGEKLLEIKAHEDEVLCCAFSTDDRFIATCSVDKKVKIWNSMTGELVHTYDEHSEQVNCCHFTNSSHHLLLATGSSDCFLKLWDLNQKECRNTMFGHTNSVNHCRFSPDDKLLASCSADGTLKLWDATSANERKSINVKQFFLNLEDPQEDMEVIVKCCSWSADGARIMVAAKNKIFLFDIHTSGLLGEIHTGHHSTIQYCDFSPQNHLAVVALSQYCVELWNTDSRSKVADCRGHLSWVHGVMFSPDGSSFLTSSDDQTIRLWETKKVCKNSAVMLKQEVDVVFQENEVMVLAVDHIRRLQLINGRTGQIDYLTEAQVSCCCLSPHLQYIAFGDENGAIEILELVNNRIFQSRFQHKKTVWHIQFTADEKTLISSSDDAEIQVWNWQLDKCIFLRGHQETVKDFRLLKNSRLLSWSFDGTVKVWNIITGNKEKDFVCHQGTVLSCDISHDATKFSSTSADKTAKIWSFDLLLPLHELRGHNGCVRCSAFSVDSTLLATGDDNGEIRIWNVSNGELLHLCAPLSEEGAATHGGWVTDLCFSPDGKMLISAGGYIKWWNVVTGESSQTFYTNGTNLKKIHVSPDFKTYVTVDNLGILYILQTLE

Mu-type opioid receptor = Mu-type opioid receptor (Homo sapiens, UniProt P35372); experiment: (§1) Counterscreen for agonists of heterodimerization of the mu 1 (OPRM1) and delta 1 (OPRD1) opioid receptors: Luminescence-based cell-based high throughput dose response assay to identify agonists of OPRM1 homodimerization.; assay type: functional
Mu-type opioid receptor, sequence (P35372 whole entry): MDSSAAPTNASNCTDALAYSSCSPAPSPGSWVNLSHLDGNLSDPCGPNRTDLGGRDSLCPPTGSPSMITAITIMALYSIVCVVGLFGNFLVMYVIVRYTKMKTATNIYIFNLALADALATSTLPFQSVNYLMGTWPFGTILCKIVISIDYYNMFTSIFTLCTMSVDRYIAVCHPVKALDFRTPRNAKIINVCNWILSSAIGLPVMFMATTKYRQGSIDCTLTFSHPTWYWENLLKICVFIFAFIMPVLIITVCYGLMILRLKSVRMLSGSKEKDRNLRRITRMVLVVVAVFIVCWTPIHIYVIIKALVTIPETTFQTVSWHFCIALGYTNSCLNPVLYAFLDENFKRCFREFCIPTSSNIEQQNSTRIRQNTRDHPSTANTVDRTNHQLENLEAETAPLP

[4] = target: 5-hydroxytryptamine receptor 5A (Homo sapiens, UniProt P47898); experiment: Counterscreen for agonists of OPRM1-OPRD1 heterodimerization: luminescence-based cell-based high throughput dose response assay to identify agonists of 5-hydroxytryptamine (serotonin) 5A receptor (HTR5A). [Related pubchem assays (depositor defined):AID504326, AID504355, AID504692, AID504904, AID504905]; assay type: functional
5-hydroxytryptamine receptor 5A, sequence (P47898 whole entry): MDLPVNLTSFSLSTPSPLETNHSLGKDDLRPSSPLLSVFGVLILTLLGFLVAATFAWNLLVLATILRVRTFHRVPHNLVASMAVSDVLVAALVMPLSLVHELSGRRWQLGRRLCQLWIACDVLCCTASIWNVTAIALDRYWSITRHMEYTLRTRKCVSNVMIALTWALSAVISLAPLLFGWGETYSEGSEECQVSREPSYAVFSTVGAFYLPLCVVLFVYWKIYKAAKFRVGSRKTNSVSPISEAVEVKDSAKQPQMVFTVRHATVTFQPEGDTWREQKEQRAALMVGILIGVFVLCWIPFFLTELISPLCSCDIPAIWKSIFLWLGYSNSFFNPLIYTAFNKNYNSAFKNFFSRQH

[5] = target: T2, Short transient receptor potential channel 4 (Mus musculus, UniProt Q9QUQ5); experiment: calcium entry via TRPC4 opening agents – cell-based, HEK293 TRPC4/mu-opioid, Fluo-4 calcium, dose response (AID 434937); assay type: functional
T2 sequence (Q9QUQ5 whole entry): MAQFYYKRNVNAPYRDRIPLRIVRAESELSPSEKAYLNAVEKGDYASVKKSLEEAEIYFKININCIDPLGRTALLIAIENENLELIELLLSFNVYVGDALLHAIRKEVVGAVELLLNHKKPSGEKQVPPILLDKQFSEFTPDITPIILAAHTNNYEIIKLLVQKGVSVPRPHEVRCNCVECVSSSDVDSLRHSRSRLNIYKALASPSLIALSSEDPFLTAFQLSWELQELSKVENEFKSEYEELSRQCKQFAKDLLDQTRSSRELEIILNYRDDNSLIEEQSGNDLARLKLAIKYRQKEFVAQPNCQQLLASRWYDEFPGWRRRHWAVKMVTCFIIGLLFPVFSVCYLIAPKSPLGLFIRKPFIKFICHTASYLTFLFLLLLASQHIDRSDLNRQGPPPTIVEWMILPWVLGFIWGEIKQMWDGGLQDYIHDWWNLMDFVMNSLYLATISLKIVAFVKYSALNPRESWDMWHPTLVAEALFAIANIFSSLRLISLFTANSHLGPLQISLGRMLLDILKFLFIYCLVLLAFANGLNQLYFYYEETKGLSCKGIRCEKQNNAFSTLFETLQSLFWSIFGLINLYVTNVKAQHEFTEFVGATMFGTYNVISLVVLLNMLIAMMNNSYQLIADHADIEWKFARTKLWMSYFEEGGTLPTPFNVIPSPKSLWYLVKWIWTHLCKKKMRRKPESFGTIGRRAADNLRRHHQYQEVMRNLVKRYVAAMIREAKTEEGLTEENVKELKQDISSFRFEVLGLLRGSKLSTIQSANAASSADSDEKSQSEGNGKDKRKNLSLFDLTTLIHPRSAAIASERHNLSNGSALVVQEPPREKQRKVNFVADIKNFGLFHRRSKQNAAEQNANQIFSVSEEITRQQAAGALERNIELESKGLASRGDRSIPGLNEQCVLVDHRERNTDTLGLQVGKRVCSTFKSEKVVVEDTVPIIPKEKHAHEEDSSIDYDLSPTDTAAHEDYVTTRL

[6] = target: Opioid receptors; mu & delta (Homo sapiens, UniProt P41143+P35372); experiment: OPRM1-OPRD1 heterodimer agonist potency – cell-based, luminescence, dose response (AID 588407); assay type: functional
[7] = target: Delta-type opioid receptor (Homo sapiens, UniProt P41143); experiment: as §1, with “of OPRD1” for “of OPRM1”, “homodimerization. [Related pubchem assays (depositor defined):AID504326, AID504355, AID504692, AID504904, AID504905]” for “homodimerization.”; assay type: functional
Delta-type opioid receptor, sequence (P41143 whole entry): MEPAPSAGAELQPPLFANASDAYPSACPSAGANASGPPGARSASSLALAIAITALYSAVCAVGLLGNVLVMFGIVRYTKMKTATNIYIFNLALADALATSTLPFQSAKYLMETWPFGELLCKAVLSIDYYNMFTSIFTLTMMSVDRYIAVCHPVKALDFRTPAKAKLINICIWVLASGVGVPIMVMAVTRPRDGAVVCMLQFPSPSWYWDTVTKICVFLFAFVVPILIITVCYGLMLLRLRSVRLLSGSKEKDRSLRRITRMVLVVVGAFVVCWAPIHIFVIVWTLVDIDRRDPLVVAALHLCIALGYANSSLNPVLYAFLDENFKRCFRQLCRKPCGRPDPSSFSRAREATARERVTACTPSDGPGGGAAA

Escherichia coli = experiment: microbe, parasite or virus in culture
[8] = target: Glyceraldehyde-3-phosphate dehydrogenase (Homo sapiens, UniProt P04406)
Glyceraldehyde-3-phosphate dehydrogenase, sequence (P04406 whole entry): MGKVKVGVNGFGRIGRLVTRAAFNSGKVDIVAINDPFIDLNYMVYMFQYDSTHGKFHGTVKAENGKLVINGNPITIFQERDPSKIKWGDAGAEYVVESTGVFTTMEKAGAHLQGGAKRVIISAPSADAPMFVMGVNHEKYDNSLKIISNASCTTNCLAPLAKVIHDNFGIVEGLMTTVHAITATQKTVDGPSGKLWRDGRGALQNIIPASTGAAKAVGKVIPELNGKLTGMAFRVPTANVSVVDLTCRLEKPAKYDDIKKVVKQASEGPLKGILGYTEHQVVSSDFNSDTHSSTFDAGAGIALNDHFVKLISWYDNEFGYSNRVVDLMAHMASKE

[9] = target: T3, Dual specificity protein phosphatase 6 (Rattus norvegicus, UniProt Q64346)
T3 sequence (Q64346 whole entry): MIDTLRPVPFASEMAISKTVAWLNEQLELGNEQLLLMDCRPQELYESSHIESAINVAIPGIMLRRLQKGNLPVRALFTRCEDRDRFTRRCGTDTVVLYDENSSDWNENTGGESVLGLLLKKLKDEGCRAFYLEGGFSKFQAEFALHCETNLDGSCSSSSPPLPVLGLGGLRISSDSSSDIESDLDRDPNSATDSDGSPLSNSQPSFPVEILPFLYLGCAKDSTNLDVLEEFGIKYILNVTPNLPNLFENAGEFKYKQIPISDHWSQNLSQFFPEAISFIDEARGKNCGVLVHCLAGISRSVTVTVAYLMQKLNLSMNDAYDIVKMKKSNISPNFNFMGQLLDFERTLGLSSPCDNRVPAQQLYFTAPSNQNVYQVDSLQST

[10] = target: T4, Tyrosine-protein phosphatase non-receptor type 7 (Homo sapiens, UniProt P35236); assay type: functional
T4 sequence (P35236 whole entry): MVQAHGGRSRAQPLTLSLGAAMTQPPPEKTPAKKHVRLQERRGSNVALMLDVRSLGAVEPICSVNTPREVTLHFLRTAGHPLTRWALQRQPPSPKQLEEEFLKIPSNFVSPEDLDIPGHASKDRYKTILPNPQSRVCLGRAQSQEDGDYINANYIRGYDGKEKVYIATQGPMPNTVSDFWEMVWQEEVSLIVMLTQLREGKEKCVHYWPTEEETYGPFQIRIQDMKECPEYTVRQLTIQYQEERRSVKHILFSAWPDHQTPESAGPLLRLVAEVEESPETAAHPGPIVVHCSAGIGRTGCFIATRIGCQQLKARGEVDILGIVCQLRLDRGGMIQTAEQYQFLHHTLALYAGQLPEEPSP

[11] = target: T3, Dual specificity protein phosphatase 6; assay type: functional
[12] = target: T5, Small ubiquitin-related modifier 1 (Homo sapiens, UniProt P63165); experiment: SUMO1 protein-protein binding blockers, potency – biochemical, FRET, dose response (AID 624383); assay type: functional; conditions: read-out: IC50_Mean
T5 sequence (P63165 whole entry): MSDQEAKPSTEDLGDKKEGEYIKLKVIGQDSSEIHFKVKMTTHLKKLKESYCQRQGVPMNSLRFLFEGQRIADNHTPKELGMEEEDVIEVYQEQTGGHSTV

[13] = target: T6, Beta-adrenergic receptor kinase 1 (Homo sapiens, UniProt P25098); experiment: Second cherry pick EC50 of compounds blocking aptamer binding to bead-bound GRK2 by flow cytometry, biochemical (AID 504815)
T6 sequence (P25098 whole entry): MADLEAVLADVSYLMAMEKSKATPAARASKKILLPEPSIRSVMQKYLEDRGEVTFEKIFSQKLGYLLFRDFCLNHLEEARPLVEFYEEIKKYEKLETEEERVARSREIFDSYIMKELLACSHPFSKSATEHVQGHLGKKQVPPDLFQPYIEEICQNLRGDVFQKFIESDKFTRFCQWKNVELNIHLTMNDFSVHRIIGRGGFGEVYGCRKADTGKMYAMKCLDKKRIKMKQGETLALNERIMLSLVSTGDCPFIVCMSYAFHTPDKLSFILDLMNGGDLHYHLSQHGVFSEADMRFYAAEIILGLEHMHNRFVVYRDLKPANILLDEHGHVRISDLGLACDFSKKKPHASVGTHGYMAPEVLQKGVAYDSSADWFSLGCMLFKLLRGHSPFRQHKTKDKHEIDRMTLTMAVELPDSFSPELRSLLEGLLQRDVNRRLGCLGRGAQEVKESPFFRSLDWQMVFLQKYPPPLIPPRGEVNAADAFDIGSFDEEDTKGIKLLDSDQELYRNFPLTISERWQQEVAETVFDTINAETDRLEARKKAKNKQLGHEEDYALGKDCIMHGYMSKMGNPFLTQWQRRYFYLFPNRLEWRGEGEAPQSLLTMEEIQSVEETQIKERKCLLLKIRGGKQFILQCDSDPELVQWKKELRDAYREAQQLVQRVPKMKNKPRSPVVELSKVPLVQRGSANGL

[14] = target: T6, Beta-adrenergic receptor kinase 1; experiment: blockers of aptamer binding to GRK2 – biochemical, flow cytometry beads, FAM-aptamer, powder set 1, dose response (AID 588720)
[15] = target: T7, Voltage-gated N-type calcium channel alpha-1B subunit/Amyloid beta A4 precursor protein-binding family A member 1 (Homo sapiens, UniProt Q00975+Q02410); assay type: protein assay
T7 sequence (Q00975 whole entry): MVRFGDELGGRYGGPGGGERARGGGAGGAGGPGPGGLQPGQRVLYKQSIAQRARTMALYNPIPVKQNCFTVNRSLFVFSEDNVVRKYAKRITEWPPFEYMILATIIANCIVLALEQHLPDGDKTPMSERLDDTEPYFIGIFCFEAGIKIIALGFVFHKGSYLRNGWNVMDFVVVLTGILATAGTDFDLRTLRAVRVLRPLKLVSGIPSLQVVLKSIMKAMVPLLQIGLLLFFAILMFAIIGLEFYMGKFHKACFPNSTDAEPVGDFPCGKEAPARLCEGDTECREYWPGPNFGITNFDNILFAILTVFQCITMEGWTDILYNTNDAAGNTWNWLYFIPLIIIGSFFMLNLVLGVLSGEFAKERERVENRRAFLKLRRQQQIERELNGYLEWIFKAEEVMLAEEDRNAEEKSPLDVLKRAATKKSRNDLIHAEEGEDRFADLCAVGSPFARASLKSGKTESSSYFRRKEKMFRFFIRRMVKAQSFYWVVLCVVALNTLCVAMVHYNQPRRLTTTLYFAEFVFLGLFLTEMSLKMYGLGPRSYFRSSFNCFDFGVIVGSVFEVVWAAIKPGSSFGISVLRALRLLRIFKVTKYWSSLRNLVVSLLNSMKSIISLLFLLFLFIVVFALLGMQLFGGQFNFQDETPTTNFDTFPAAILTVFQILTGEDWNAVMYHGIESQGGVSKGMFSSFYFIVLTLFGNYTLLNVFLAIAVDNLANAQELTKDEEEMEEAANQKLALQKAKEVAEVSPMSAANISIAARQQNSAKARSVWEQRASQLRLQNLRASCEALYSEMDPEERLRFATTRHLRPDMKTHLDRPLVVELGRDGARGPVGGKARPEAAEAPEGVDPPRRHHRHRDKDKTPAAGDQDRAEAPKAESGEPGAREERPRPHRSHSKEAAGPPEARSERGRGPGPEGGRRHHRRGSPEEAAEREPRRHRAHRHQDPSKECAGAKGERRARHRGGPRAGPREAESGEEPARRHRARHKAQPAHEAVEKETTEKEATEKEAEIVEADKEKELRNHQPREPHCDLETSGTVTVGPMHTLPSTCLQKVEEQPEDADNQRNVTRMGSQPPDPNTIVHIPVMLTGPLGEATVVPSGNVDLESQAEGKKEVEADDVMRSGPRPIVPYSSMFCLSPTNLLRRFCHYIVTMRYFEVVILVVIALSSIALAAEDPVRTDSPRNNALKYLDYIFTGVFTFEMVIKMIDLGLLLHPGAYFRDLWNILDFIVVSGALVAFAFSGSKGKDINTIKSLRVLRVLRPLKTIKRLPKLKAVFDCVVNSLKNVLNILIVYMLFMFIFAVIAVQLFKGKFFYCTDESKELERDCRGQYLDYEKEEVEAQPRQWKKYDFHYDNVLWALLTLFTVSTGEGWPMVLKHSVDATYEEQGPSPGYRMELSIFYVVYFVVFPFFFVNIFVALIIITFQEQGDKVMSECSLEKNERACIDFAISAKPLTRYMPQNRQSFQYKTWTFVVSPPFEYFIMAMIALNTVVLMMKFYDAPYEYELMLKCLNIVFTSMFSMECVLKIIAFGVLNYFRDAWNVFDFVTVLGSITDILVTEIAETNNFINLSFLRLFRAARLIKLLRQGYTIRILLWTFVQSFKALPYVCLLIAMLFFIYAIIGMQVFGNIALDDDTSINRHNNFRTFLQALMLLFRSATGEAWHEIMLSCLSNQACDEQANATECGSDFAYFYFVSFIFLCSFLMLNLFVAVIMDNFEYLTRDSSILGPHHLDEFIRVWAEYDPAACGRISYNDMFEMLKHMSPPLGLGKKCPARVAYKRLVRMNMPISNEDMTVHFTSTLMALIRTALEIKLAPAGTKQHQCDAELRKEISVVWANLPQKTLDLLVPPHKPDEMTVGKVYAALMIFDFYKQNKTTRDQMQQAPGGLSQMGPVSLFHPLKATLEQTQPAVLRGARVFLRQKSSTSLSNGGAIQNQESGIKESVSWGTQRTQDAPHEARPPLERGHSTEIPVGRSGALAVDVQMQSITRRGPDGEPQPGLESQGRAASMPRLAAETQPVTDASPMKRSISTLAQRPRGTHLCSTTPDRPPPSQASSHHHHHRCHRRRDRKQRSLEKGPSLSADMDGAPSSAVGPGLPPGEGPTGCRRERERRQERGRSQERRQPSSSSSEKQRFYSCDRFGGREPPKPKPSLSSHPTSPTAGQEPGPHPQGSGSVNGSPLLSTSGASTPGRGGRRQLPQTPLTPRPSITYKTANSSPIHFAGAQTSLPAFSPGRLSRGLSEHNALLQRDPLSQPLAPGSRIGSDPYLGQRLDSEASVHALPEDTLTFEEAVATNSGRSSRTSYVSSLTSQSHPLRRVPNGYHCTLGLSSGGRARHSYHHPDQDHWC
T7 sequence (Q02410 whole entry): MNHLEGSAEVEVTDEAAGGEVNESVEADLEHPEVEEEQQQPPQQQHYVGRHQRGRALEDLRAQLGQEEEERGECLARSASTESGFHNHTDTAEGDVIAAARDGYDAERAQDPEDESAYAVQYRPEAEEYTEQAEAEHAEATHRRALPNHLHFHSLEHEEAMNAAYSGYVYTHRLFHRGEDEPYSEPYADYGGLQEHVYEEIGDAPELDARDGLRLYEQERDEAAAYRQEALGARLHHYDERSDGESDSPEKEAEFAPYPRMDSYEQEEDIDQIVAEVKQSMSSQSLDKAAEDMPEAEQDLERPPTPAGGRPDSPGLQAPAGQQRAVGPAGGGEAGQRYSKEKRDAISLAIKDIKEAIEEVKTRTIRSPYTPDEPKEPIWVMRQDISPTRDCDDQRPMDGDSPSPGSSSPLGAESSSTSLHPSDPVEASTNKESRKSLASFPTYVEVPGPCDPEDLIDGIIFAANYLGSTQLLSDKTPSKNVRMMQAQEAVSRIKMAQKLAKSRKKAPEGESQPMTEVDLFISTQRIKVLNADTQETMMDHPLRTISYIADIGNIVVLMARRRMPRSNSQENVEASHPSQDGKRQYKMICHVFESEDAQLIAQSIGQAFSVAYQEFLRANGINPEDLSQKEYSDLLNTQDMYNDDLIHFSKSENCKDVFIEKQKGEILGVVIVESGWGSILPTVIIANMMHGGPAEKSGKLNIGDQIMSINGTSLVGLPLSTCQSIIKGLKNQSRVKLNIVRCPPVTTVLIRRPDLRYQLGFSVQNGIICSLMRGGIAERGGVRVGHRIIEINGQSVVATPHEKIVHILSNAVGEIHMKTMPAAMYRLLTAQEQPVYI

[16] = target: T7, Voltage-gated N-type calcium channel alpha-1B subunit/Amyloid beta A4 precursor protein-binding family A member 1; assay type: protein assay; remark: listed apart in the source
[17] = target: G-protein coupled receptor 35 (Homo sapiens, UniProt Q9HC97); experiment: inhibition of zaprinast-stimulated GPR35 beta-arrestin translocation – imaging, U2OS, beta-arrestin-GFP, zaprinast agonist, primary screen (AID 2058); assay type: functional;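 note: antagonist potency meaning inhibition of agonist-induced arrestin redistribution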
G-protein coupled receptor 35, sequence (Q9HC97 whole entry): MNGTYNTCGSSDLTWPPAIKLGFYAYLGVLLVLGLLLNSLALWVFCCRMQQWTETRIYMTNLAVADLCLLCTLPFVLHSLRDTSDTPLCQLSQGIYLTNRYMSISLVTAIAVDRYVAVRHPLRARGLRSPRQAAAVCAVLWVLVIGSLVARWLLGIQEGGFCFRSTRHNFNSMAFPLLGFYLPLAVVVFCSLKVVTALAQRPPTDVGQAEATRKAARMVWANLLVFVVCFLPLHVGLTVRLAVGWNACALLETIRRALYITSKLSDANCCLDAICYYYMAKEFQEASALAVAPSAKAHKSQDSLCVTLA

[18] = target: T5, Small ubiquitin-related modifier 1; experiment: SUMO1 protein interaction blockers, potency – biochemical, fluorescence polarization, uHTS hits, dose response (AID 624382); assay type: functional; conditions: read-out: IC50_Mean
[19] = target: T8, Carboxy-terminal domain RNA polymerase II polypeptide A small phosphatase 1 (Homo sapiens, UniProt Q9GZU7); experiment: CTDSP1 inhibitors, concentration-response, biochemical, absorbance readout, ultra-high-throughput screen actives (AID 540297); assay type: functional
T8 sequence (Q9GZU7 whole entry): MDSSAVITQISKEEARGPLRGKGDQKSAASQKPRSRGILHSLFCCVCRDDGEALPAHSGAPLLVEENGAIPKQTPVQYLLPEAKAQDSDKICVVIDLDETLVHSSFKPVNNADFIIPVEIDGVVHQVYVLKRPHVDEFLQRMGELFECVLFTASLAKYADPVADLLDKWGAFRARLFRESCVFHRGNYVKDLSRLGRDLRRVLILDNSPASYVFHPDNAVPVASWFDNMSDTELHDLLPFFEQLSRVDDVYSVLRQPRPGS

SMILES: O=C(CCS(=O)(=O)c1ccccc1)Nc1nc(-c2ccc(F)cc2)cs1
- AC50 [1]: 143 µM (active)
- AC50 [2]: 10.4 µM (active)

SMILES: Cc1cc(C)n(CC(C)C(=O)O)n1 (stereo unspecified)
- EC50 [3]: 10.9 µM (active)

SMILES: COc1ccccc1N1CCN(C(c2cccs2)C(C)NC(=O)c2ccco2)CC1 (stereo unspecified)
- EC50 (Mu-type opioid receptor): 50.3 µM (inactive)
- EC50 [4]: > 92.5 µM (inactive)
- EC50 [5]: 84 nM (active)
- EC50 [6]: > 3.425 µM
- EC50 [7]: > 92.5 µM (inactive)

SMILES: Cc1ccc(-n2nnnc2SCC(=O)Nc2ccc3c(c2)OCCO3)cc1C
- AC50 (Escherichia coli): 30.9 µM (active)

SMILES: O=c1nc(NCCc2ccccc2)[nH]c(=O)n1-c1ccccc1
- IC50 [8]: > 100 µM (not active)
- IC50 [9]: > 100 µM (inactive)
- IC50 [10]: > 100 µM (not active)
- IC50 [11]: > 100 µM (inactive)

SMILES: NS(=O)(=O)c1ccc(CCNC(=O)CCS(=O)(=O)c2ccc(Br)cc2)cc1
- IC50 [12]: 9.08 µM (active)
- EC50 [13]: 5.2 µM (active)
- EC50 [14]: 1.21 µM (active)
- IC50 [15]: > 50 µM (inactive)
- IC50 [16]: 40.9 µM (active)
- IC50 [17]: 2.23 µM (active)
- IC50 [18]: > 66.6 µM (inactive)
- IC50 [19]: 4.17 µM (active)

Source: ChEMBL document CHEMBL1201862, “PubChem BioAssay data set” (2004)
